From US20110105389A1 (priority 2009, published 2011)

Tests used:
[1] = target: T1, GHS-R1a receptor (HEK293 cells expressing GHS-R1a receptor) (Homo sapiens, UniProt Q92847); test: Fluorescence functional assay (ghrelin receptor), Method B2, agonist and antagonist mode; type: cell-based; conditions: functional activity as an antagonist at the ghrelin receptor, Methods B2 and B3
T1 construct: host or cells: HEK293
Outline: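 Calcium flux read by ImageTrak epifluorescence in HEK293 cells stably expressing GHS-R1a, loaded 1 h at 37 °C with Calcium-3 dye; buffer HBSS/20 mM Hepes, pH 7.4, with probenecid and BSA. Agonists injected after 10 s baseline, read 50 s more; antagonists 3 min. Sigmoidal fits gave EC50 or IC50.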

[2] = Plasma protein binding (equilibrium dialysis), Method B5; type: in vitro ADME; conditions: human plasma, 60 min at 37° C., typically 10 μM
From the text: B5. Plasma Protein Binding
The pharmacokinetic and pharmacodynamic properties of drugs are largely a function of the reversible binding of drugs to plasma or serum proteins such as albumin and α1-acid glycoprotein. In general, only unbound drug is available for diffusion or transport across cell membranes, and for interaction at the pharmacological target. On the other hand, drugs with low plasma protein binding generally have large volumes of distribution and rapid clearance since only unbound drug is available for glomerular filtration and, in some cases, hepatic clearance. Thus, the extent of plasma protein binding can influence efficacy, distribution and elimination. The ideal range for plasma protein binding is in the range of 87-98% for most drug products.
Protein binding studies were performed using human plasma. Briefly, 96-well microplates were used to incubate various concentrations of the test article for 60 min at 37° C. A concentration of 10 μM was a typical selection to be employed in this study. Bound and unbound fractions are separated by equilibrium dialysis, where the concentration remaining in the unbound fraction is quantified by LC-MS or LC-MS-MS analysis. […].

[3] = Pharmacokinetic analysis (intravenous and oral), Method B9; type: in vivo
Outline: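 Compound concentration was typically 2 mg/mL for intravenous and 8 mg/mL for oral dosing. PK parameters such as elimination half-life and total plasma clearance were derived.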

CYP2D6 = CYP2D6 (Homo sapiens, UniProt P10635); test: biochemical
CYP2D6, sequence (P10635 whole entry): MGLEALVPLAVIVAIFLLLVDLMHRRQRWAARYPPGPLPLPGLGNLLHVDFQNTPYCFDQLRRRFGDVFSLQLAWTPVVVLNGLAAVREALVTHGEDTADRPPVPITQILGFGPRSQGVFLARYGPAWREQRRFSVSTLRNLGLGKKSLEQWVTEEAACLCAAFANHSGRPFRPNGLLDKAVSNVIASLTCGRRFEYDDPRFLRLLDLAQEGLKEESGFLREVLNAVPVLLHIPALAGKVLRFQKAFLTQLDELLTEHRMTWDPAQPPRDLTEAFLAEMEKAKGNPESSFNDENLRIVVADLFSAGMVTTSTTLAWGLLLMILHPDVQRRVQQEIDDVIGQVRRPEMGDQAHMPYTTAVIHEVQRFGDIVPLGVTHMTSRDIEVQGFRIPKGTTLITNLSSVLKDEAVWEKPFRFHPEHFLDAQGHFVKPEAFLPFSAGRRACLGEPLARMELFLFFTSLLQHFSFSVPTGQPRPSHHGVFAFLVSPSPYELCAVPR

CYP3A4 = CYP3A4 (Homo sapiens, UniProt P08684); test: biochemical
CYP3A4, sequence (P08684 whole entry): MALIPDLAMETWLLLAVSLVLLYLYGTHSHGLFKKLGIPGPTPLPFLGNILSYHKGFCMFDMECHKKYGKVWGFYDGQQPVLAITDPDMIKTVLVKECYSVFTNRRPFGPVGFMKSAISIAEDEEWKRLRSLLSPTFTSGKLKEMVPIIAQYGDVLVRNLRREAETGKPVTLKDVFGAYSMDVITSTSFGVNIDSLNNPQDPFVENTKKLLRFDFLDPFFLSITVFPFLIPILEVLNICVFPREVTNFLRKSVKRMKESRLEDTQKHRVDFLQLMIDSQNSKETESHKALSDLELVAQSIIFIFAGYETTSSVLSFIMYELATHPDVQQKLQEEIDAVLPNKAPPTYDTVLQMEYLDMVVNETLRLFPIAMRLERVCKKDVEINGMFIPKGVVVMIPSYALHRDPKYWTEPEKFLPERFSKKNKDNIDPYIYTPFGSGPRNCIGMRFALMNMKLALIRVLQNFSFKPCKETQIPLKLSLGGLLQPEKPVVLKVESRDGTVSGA

[4] = plasma, Table 10b, 2 mg/mL intravenous typically employed

T1 sequence (Q92847 whole entry): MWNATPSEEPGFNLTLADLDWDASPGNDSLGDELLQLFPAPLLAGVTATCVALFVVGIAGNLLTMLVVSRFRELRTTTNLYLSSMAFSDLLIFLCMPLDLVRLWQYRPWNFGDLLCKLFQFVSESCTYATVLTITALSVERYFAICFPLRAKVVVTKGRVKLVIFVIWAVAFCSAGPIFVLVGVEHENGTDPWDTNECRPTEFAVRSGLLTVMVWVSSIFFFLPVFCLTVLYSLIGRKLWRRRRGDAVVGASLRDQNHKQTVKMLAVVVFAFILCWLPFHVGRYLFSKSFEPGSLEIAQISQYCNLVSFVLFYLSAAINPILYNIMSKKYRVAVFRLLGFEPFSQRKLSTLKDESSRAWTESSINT

Row | Antagonist Activity [1] | fraction unbound at 60 min, 10 μM [2] | Oral F ([3]; in vivo, po) [%] | half-life ([3]; plasma) [h] | clearance ([3]; plasma, intravenous) [mL/min/kg] | IC50 (CYP2D6) [µM] | IC50 (CYP3A4) [µM] | clearance [3, 4] [mL/min/kg] | half-life [3, 4] [h] | F ([3]; Oral, 8 mg/kg) [%] | Tmax ([3]; Oral, 8 mg/kg, individual values) | AUC(0-inf) ([3]; plasma, Intravenous, 2 mg/kg) [ng·h/mL] | clearance ([3]; plasma, Intravenous, 2 mg/kg) [mL/min/kg] | half-life ([3]; plasma, Intravenous, 2 mg/kg) [h] | Vd ([3]; plasma, Intravenous, 2 mg/kg, read-out: Vz) [L/kg] | AUC(0-inf) ([3]; plasma, Oral, 8 mg/kg) [ng·h/mL] | Cmax ([3]; plasma, Oral, 8 mg/kg, read-out: Cmax) [ng/mL] | bioavailability ([3]; plasma, Table 10b, 2 mg/mL intravenous and 8 mg/mL oral typically employed) [%] | Compound
1 | B (B = 1-10 nM) | 0.036 | 18 | 1.07 | 23 | 2.1 | 0.7 | – | – | – | – | – | – | – | – | – | – | – | CC[C@@H]1CCc2ccc(F)cc2OCCN[C@@H](C(C)C)C(=O)N(C)[C@@H](C(C)O)C(=O)N[C@H](Cc2c[nH]c3ccccc23)C(=O)N1 (some centres unmarked) [Compound 1505]
2 | B (B = 1-10 nM) | 0.076 | – | – | – | 21.1 | 7.7 | 26 ± 18 | 0.983 ± 0.633 | – | – | – | – | – | – | – | – | – | CC(O)[C@H]1C(=O)N[C@H](Cc2ccccc2)C(=O)NCCCc2cccc3c2OC(CC3)CN[C@@H](C2CC2)C(=O)N1C (some centres unmarked) [Compound 1778]
3 | A (A <1 nM) | 0.207 | – | – | – | 14.1 | 8 | – | – | 11 ± 2 | 30/30 | 2600 | 17 ± 9 | 1.8 ± 0.85 | 2.55 ± 1.47 | 1110 | 421 ± 16 | – | CC(C)[C@@H]1NCCOc2ccccc2C2CCC(C2)NC(=O)[C@@H](Cc2ccccc2)NC(=O)[C@H](C(C)O)N(C)C1=O (some centres unmarked) [Compound 1848]
4 | A (A <1 nM) | 0.05 | – | – | – | 23.1 | 8.5 | 28 ± 8 | 2.65 ± 0.267 | – | – | – | – | – | – | – | – | 54 ± 19 | CC(O)[C@H]1C(=O)N[C@H](Cc2ccccc2)C(=O)NCC#Cc2c(F)cccc2OCCN[C@@H](C2(C)CC2)C(=O)N1C (some centres unmarked) [Compound 1876]
5 | A (A <1 nM) | 0.127 | – | – | – | 45.3 | 11.6 | 35 ± 1 | 2.07 ± 0.317 | – | – | – | – | – | – | – | – | – | CC(O)[C@H]1C(=O)N[C@H](Cc2ccccc2)C(=O)NCC#Cc2ccccc2OCCN[C@@H](C2(C)CC2)C(=O)N1C (some centres unmarked) [Compound 1878]
